Results from patent US12303591B2, “Tumescent infiltration drug delivery of high subcutaneous drug concentrations with prolonged local and systemic effects and minimal local or systemic toxicity” (priority 2015, dated 2025).
In brackets after ≈: the same amount, converted by molar mass. Several values for one entry are separate records, joined by “and”; a condition that tells them apart may be missing. Equal entries are not always repeated. Where two headings read alike, the source gives them in different places.

Assays:
[1] = Safety of tumescent drug delivery: subcutaneous infiltration of tumescent acyclovir and gentamicin; type: in vivo, human
Herpes zoster = conditions: without repeat dosing
[2] = Adverse effects / tissue toxicity after subcutaneous tumescent infiltration (TAD trial)
Excerpt: At the time when each sample of TISF was obtained, patients were examined and questioned about signs and symptoms of subcutaneous tissue toxicity including unusual soreness, tenderness, discoloration, swelling at sites of subcutaneous tumescent infiltration. […] One week after TAD patients were questioned by telephone about any signs and symptoms of subcutaneous tissue toxicity at the sites of TAD.

clinical = conditions: human, in vivo
[3] = system: Staphyloccus aureus (MRSA) ATCC 33592; experiment: Minimum Inhibitory Concentration (MIC) vs MRSA; conditions: Staphylococcus aureus
[4] = system: Staphyloccus aureus (MRSA) ATCC 33592; experiment: Minimum Bactericidal Concentration (MBC) vs MRSA; type: cell-based, Staphylococcus aureus
Excerpt: Determinations of MBC followed the method described in “Report on the Working Party on Antibiotic Sensitivity Testing of the British Society of Antimicrobial Chemotherapy: A Guide to Sensitivity Testing.”

platelet function = experiment: Bleeding time and bleeding area before and after tumescent lidocaine exposure; type: in vivo, human
Method: The skin of the left and right thigh of a subject is cleaned and allowed to dry. […] Simultaneous 4 mm deep puncture wounds are made to the same area of the left and right thighs with disposable lancets. The puncture sites are blotted with filter paper every 30 seconds, until bleeding stops and the bleeding time for each thigh is recorded. The bleeding times of the left and right thigh are compared to determine if administration of TLAnti increases bleeding time. Normal bleeding time measured by the Duke method is 1 to 3 minutes.
In a preliminary experiment, bleeding time and bleeding area were measured in a patient before and after tumescent lidocaine exposure. […] In contrast, there was a 40% increase in Average Bleeding Area (BA). Bleeding Area (BA) was a more sensitive and a more specific test for platelet function compared to Bleeding Time (BT). […] In other words, TAD may reduce the risk of both post-operative surgical site infection and post-operative thromboembolism.

[5] = 28 mg/kg of tumescent lidocaine
platelet aggregation = conditions: cited from earlier work
[6] = IV Lidocaine; neuropathic pain; cited from earlier work
[7] = routine injection; cited from earlier work
[8] = human, in vivo
[9] = IVAD 500 mg; abdominal wall surgery; cited from earlier work
[10] = Phase I pharmacokinetic clinical trial: TAD vs IVAD of cefazolin and metronidazole (TISF and serum); conditions: for AUC / Cmax: human, in vivo
[11] = 8 of 10 obese subjects and 3 of 10 normal controls; cited from earlier work
[12] = after vs before tumescent lidocaine exposure
[13] = post-op tumescent lidocaine exposure, single tests T3, T4, Patient 1
[14] = dilute drug after subcutaneous tumescent infiltration
[15] = 20 ml subcutaneous TI, 6 of 6 subjects, 6 days

Nc1nc2c(ncn2COCCO)c(=O)[nH]1 [Acyclovir]
clinically significant adverse effects ([1]; in vivo, sc): without any clinically significant adverse effects
ecchymosis ([1]; in vivo, sc): no ecchymosis
local tenderness upon palpation ([1]; in vivo, sc): no local tenderness
duration of elimination of acute zoster pain (Herpes zoster): at least 12 hours

Cc1nnc(SCC2=C(C(=O)O)N3C(=O)[C@@H](NC(=O)Cn4cnnn4)[C@H]3SC2)s1 [Cefazolin]
adverse local or systemic effects ([2]; in vivo, sc): no adverse local or systemic effects
Tmax (clinical): 8 to 12 h
MIC [3]: 125 to 250 µg/mL (≈ 0.275 to 0.55 mM)

CCN(CC)CC(=O)Nc1c(C)cccc1C [Lidocaine]
MRSA survival at test concentration (MBC test) ([4]; Day 1, 1,000 mg/L, MRSA Inoculum 4.7 × 10^5 CFU/ml): +
MRSA survival at test concentration (MBC test) ([4]; Day 2, 1,000 mg/L, MRSA Inoculum 4.4 × 10^5 CFU/ml): +
MRSA survival at test concentration (MBC test) ([4]; Day 2, 5,000 mg/L, MRSA Inoculum 4.4 × 10^5 CFU/ml): +
MRSA survival at test concentration (MBC test) ([4]; Day 2, 10,000 mg/L, MRSA Inoculum 4.4 × 10^5 CFU/ml): 0
MBC ([4]; Staphylococcus aureus, 48 h, read-out: MBC end point): 10000 µg/mL (≈ 42.7 mM)
Average Bleeding Area (BA) (platelet function; after tumescent lidocaine exposure (Control BA = 541)): Lidocaine BA = 759
Average Bleeding Time (BT) (platelet function; after tumescent lidocaine exposure (Control BT = 6)): Lidocaine BT = 5.75
change in Average Bleeding Time (BT) (platelet function; [12]): essentially no change
increase in Average Bleeding Area (BA) (platelet function; [12]): 40%
Bleeding Area BA (platelet function; [13]): 791.81 and 726.03
Bleeding Time BT × 2 (platelet function; [13]): 10 and 13
adverse local or systemic effects [2, 14]: no adverse local or systemic effects
duration of therapeutic serum lidocaine concentrations [5]: ≥ 12 h
concentrations that consistently inhibit in-vitro platelet aggregation (platelet aggregation; aggregation induced by ADP, epinephrine and collagen): ≥ 0.5 mg/mL
systemic concentrations with no effect on platelet aggregation (platelet aggregation; safe systemic concentrations): ≤ 6 micrograms/ml
mean serum lidocaine concentration at complete analgesia [6]: 3.79 ± 1.00 µg/mL
duration of routine local anesthesia [7]: ~2 h
MIC [3]: ~5000 µg/mL (≈ 21.3 mM)
MIC ([3]; read-out: MIC end point): 5000 µg/mL (≈ 21.3 mM)

Cc1ncc([N+](=O)[O-])n1CCO [Metronidazole]
adverse local or systemic effects ([2]; in vivo, sc): no adverse local or systemic effects
mean Tmax (time of Cmax in serum) [8]: 11
concentration in subcutaneous fat [9]: 600 to 1700 ng/mL
Tmax (clinical): 10 to 12 h
AUC∞ in TISF after TAD, times greater than in serum after IVAD ([10]; 500 mg TAD vs 500 mg IVAD): 8.1 times
AUC ([10]; 500 mg, Table 15B, Abdomen, TISF, TAD, 413 mg/L, with cefazolin): 1030 µg·h/mL
AUC ([10]; 500 mg, Table 15B, Abdomen, serum, IVAD, with cefazolin): 127 µg·h/mL
AUC ([10]; 500 mg, Table 15B, Abdomen, serum, TAD, 413 mg/L, with cefazolin): 81 µg·h/mL
Cmax ([10]; 500 mg, Cmax in tumescent interstitial fluid, TAD solution containing 500 mg of metronidazole): 370000 ng/mL
Cmax ([10]; 500 mg, Cmax, Table 15B, Abdomen, TISF, TAD, 413 mg/L, with cefazolin): 160000 ng/mL
Cmax ([10]; 500 mg, Cmax, Table 15B, Abdomen, serum, IVAD, with cefazolin): 14000 ng/mL
Cmax ([10]; 500 mg, Cmax, Table 15B, Abdomen, serum, TAD, 413 mg/L, with cefazolin): 4800 ng/mL
AUC ([10]; 600 mg, Table 16B, Abdomen, serum, TAD, 172 mg/L, TAD dose 600 mg): 81 µg·h/mL
Cmax ([10]; 600 mg, Cmax, Table 16B, Abdomen, TISF, TAD, 172 mg/L, TAD dose 600 mg): 160000 ng/mL
Cmax ([10]; 600 mg, Cmax, Table 16B, Abdomen, serum, IVAD dose 600 mg): 14000 ng/mL
Cmax ([10]; 600 mg, Cmax, Table 16B, Abdomen, serum, TAD, 172 mg/L, TAD dose 600 mg): 4800 ng/mL
AUC ([10]; Table 16B, Abdomen, TISF, TAD + IVAD, 200 mg/L, TAD dose 400 mg, IVAD dose 200 mg): 1130 µg·h/mL
AUC ([10]; Table 16B, Abdomen, serum, TAD + IVAD, 200 mg/L, TAD dose 400 mg, IVAD dose 200 mg): 117 µg·h/mL
Cmax ([10]; Cmax, Table 16B, Abdomen, TISF, TAD + IVAD, 200 mg/L, TAD dose 400 mg, IVAD dose 200 mg): 150000 ng/mL
Cmax ([10]; Cmax, Table 16B, Abdomen, serum, TAD + IVAD, 200 mg/L, TAD dose 400 mg, IVAD dose 200 mg): 5900 ng/mL

CO[C@@]1(NC(=O)Cc2cccs2)C(=O)N2C(C(=O)O)=C(COC(N)=O)CS[C@@H]21 [cefoxitin]
subcutaneous bioavailability (AUC) of free drug after IVAD, times less than serum bioavailability [11]: 10 times
subcutaneous bioavailability by IVAD, times less than by TAD ([10]; 10×16, for a significant proportion of patients): approximately 160 times

CNC[C@H](O)c1ccc(O)c(O)c1 [epinephrine]
adverse local or systemic effects [2, 14]: no adverse local or systemic effects

Gentamicin
ecchymosis [1, 15]: no ecchymosis
local tenderness upon palpation [1, 15]: no local tenderness
stinging upon injection ([1]; 20 ml subcutaneous TI, acyclovir 1 gm in 1130 ml, gentamicin 80 mg in 1110 ml tumescent lidocaine solution, 6 of 6 subjects): no stinging
clinically significant adverse effects ([1]; injected subcutaneously in a dilute tumescent solution): without any clinically significant adverse effects
